According to US8420012B2, “Use of monochlorourea to treat industrial waters” (Hercules Incorporated, priority 2009, dated 2013):
Values belong to the compound of their own block, whether it stands above or below them.

Experiments:
P. aeruginosa = assay: Viability of P. aeruginosa inoculated in paper mill process water, plated after 60 minutes; assay type: cell-based, Pseudomonas aeruginosa; settings: papermill process water, average of three
Procedure: Paper mill process water samples were collected from a paper mill producing super calendered paper Samples were inoculated with P. aeruginosa, and then dosed with monochlorourea and sodium hypochlorite and plated after 60 minutes.

[1] = Stability in the presence of chlorine demand (0.1× nutrient broth), total chlorine by Hach DPD; assay type: physicochemical; settings: 0.1× nutrient broth, initial 5 ppm chlorine, 37° C.
Procedure: This can be seen in Table 4 below. 20 mL aliquots of a 0.1× nutrient broth were used and the active species added such that the initial concentration of each was equivalent to 5 ppm chlorine as measured by the Hach. To prepare the nutrient broth Difco Nutrient Broth (8 grams) was dissolved in 1 L of deionized water, and subsequently diluted to 0.1× of the initial concentration prior to being autoclaved at 121° C. for 15 minutes. 100 mL solutions of each of the actives were made, and the concentration was measured using standard Hach test procedures on a BetzDearborn DR 2010 Spectrophotometer. At each time point a 1:10 dilution of the solution in DI water was made and placed in the spectrophotometer cell. Hach Permachem DPD Total Chlorine Reagent was added and the cell was placed into the spectrophotometer. The ppm of Cl2 was measured at 0, 1, 3, 6, 24, and 48 hours. A fresh dilution was made at each time point, if necessary, and the bottles of solution were placed in a shaking incubator at 37° C. in between runs. Dimethyl monochlorourea is notated as DMCU. Bis-hydroxymethyl chlorourea is BHMCU.

Pseudomonas aeruginosa [2] = assay: Viable cell counts of P. aeruginosa in PBS after 60 minutes exposure to biocide (Example 6); assay type: cell-based; settings: average of three
Procedure: The efficacy of monochlorourea as a biocide, as synthesized in Example 1, was tested against the bacterium Pseudomonas aeruginosa. The Hach DPD chlorine test (Hach Company, Loveland, Colo.) was used to measure the total available chlorine concentrations of each biocide tested. Concentrations are reported in units of milligrams per liter as Cl2. P. aeruginosa was grown overnight in Trypticase Soy Broth at 37° C. The culture was split into aliquots of equal volume, suspended in physiologically buffered saline (PBS). In this example, the cultures were exposed to […], 5.0 mg/L, 10.0 mg/L, and 15.0 mg/L of biocide for 60 minutes. The cultures were then evaluated by measuring viable cell counts after exposure to the biocides.

[3] = Free vs. total chlorine (Hach DPD) of 1000 ppm solutions in synthetic hard water; assay type: physicochemical; settings: synthetic hard water 250 ppm hardness, 35° C.
Procedure: Differences exist between monochlorourea and sodium hypochlorite, namely, sodium hypochlorite is a free chlorine generating biocide while monochlorourea is not. Free and total chlorine are measured using the DPD reagents from the Hach Company. The test is a colorimetric test in which more intense color development results as more oxidizing chlorine is present in the sample. The rate at which the dye reacts with the oxidizing chemical depends on whether the chlorine is free or bound. Total chlorine includes both free and bound chlorine.
The rate at which the dye reacts with total chlorine is accelerated by the addition of iodide to the test. This differentiates the free and total chlorine. The iodide reacts rapidly with bound oxidizing chlorine to form iodine and chloride. The iodine, a free oxidizing halogen, reacts very rapidly with the DPD dye.
One thousand ppm (as total Cl2) solutions of monochlorourea and sodium hypochlorite were prepared in synthetic hard water with 250 ppm hardness. Total and free chlorine readings were taken at 0 minutes, 30 minutes, 2 hours, and 4 hours. Untreated hard water solutions were used as blanks. The samples were stored at 35° C.+/−2° C. with mild stirring. pH values are provided as a reference points for the conditions of the chlorine species at the various test times.
Table 3 compares duplicate samples of sodium hypochlorite and monochlorourea. Significant differences exist between the free and total chlorine values of these chemicals. The release of free chlorine from monochlorourea is an energetically unfavorable reaction. Monochlorourea is a combined chlorine species that functions to kill bacteria not as a donor of free chlorine, but as a biocide itself.
Made-up 1 Liter sample of synthetic hard water with 250 ppm hardness.
Took 100 mL aliquots and set up duplicate samples of biocides at least 1,000 ppm based on total Chlorine readings.
Monitored pH, free chlorine and total chlorines at timed intervals of—0 min, 30 min, 2 hours, and 4 hours,
Monitored un-treated (blank) hard water at time 0 to serve as baseline.
Between sampling stored all samples in 35° C.+/−2° C. Heater/shaker with mild stirring.

Pseudomonas aeruginosa [4] = assay: Log10 reduction of viable P. aeruginosa in PBS after exposure to biocide (Example 8); assay type: cell-based; settings: average of three
Procedure: The efficacy of dimethyl monochlorourea (DMCU) as a biocide, as synthesized in Example 5, was tested against the bacterium Pseudomonas aeruginosa. The Hach DPD chlorine test (Hach Company, Loveland, Colo.) was used to measure the total available chlorine concentrations of each biocide tested. Concentrations are reported in units of milligrams per liter as Cl2. P. aeruginosa was grown overnight in Trypticase Soy Broth at 37° C. The culture was split into aliquots of equal volume and suspended in physiologically buffered saline (PBS). […] The cultures were then evaluated by measuring viable cell counts after exposure to the biocides.

[5] = Stability of dimethylchlorourea aqueous solutions at different pH and temperature by UV-Vis Spectroscopy; assay type: physicochemical
Description: The stability of dimethylchlorourea was also examined under a variety of different conditions including pH and temperature. […] In the following table the initial concentration C0, the final concentration Cf, the final time tf and the half life t½, are given.

[6] = Effect of pH on stability of monochlorourea in D2O by 13C NMR; assay type: physicochemical
Description: The effect of pH on the stability of monochlorourea was significant. Carbon 13 labeled urea was used to examine the stability of the products overnight in D2O. […] However, completely acidifying all the solutions to a pH of 2.5 did have a significant effect on both the yield and the stability of the product.

[7] = Time = 30 min, listed as Bleach-1
[8] = Time = 30 min, listed as Bleach-2
[9] = Time = 2 hours, listed as Bleach-1
[10] = Time = 2 hours, listed as Bleach-2
[11] = Time = 4 hours, listed as Bleach-1
[12] = Time = 4 hours, listed as Bleach-2
[13] = Time = 2 hours, listed as MCU-1
[14] = Time = 2 hours, listed as MCU-2
[15] = Time = 4 hours, listed as MCU-1
[16] = Time = 4 hours, listed as MCU-2

SMILES: [Na+].[O-]Cl [NaOCl, Sodium Hypochlorite]
- log10 of viable cfu/mL (P. aeruginosa; 1.0 mg/l): 9.9 log10 cfu/mL
- log10 of viable cfu/mL (P. aeruginosa; 3.0 mg/l): 9.8 log10 cfu/mL
- log10 of viable cfu/mL (P. aeruginosa; 5.0 mg/l): 8.7 log10 cfu/mL
- log10 of viable cfu/mL (P. aeruginosa; 10.0 mg/l): 4.5 log10 cfu/mL
- Stability: total chlorine remaining relative to initial ([1]; 0 hr): 100%
- Stability: total chlorine remaining relative to initial ([1]; 3 hrs): 22%
- Stability: total chlorine remaining relative to initial ([1]; 6 hrs): 6%
- Stability: total chlorine remaining relative to initial ([1]; 24 hrs): 2%
- Stability: total chlorine remaining relative to initial ([1]; 48 hrs): 1%
- log10 of viable cfu/mL remaining after exposure (Pseudomonas aeruginosa [2]; 5.0 mg/L as Cl2, 60 minutes): 9.7 log10 cfu/mL
- log10 of viable cfu/mL remaining after exposure (Pseudomonas aeruginosa [2]; 10.0 mg/L as Cl2, 60 minutes): 9.1 log10 cfu/mL
- log10 of viable cfu/mL remaining after exposure (Pseudomonas aeruginosa [2]; 15.0 mg/L as Cl2, 60 minutes): 4.4 log10 cfu/mL
- Free Cl ([3]; Time = 0, listed as Bleach-1): 900 ppm
- Tot Cl ([3]; Time = 0, listed as Bleach-1): 950 ppm
- Free Cl ([3]; Time = 0, listed as Bleach-2): 950 ppm
- Tot Cl ([3]; Time = 0, listed as Bleach-2): 1060 ppm
- Free Cl [3, 7]: 860 ppm
- Tot Cl [3, 7]: 890 ppm
- Free Cl [3, 8]: 880 ppm
- Tot Cl [3, 8]: 1020 ppm
- Free Cl [3, 9]: 810 ppm
- Tot Cl [3, 9]: 920 ppm
- Free Cl [3, 10]: 840 ppm
- Tot Cl [3, 10]: 1010 ppm
- Free Cl [3, 11]: 840 ppm
- Tot Cl [3, 11]: 940 ppm
- Free Cl [3, 12]: 950 ppm
- Tot Cl [3, 12]: 1040 ppm
- log10 reduction of viable cfu/mL (LR) (Pseudomonas aeruginosa [4]; 1 mg/L): 5.3 log10
- log10 reduction of viable cfu/mL (LR) (Pseudomonas aeruginosa [4]; 3 mg/L): 5.4 log10
- log10 reduction of viable cfu/mL (LR) (Pseudomonas aeruginosa [4]; 5 mg/L): 6.7 log10

- half life t½ ([5]; 50 ° C., pH 3): 4 days
- final concentration Cf ([5]; 50 ° C., pH 3, C0 575 ppm, tf 1 Days): 491 ppm
- half life t½ ([5]; 50 ° C., pH 5): 82 days
- final concentration Cf ([5]; 50 ° C., pH 5, C0 576 ppm, tf 3 Days): 561 ppm
- half life t½ ([5]; 50 ° C., pH 12): 0.417 days
- final concentration Cf ([5]; 50 ° C., pH 12, C0 478 ppm, tf 6 Hours): 315 ppm
- half life t½ ([5]; 75 ° C., pH 3): 0.75 days
- final concentration Cf ([5]; 75 ° C., pH 3, C0 576 ppm, tf 24 Hours): 231 ppm
- half life t½ ([5]; 75 ° C., pH 7): 14 days
- final concentration Cf ([5]; 75 ° C., pH 7, C0 590 ppm, tf 1 Days): 562 ppm
- half life t½ ([5]; 75 ° C., pH 12): 0.17 days
- final concentration Cf ([5]; 75 ° C., pH 12, C0 423 ppm, tf 24 Hours): 4 ppm
- half life t½ ([5]; RT, pH 2): 41 days
- final concentration Cf ([5]; RT, pH 2, C0 393 ppm, tf 34 Days): 220 ppm
- half life t½ ([5]; RT, pH 3): 54 days
- final concentration Cf ([5]; RT, pH 3, C0 577 ppm, tf 28 Days): 402 ppm
- half life t½ ([5]; RT, pH 5): 84 days
- final concentration Cf ([5]; RT, pH 5, C0 603 ppm, tf 34 Days): 456 ppm
- half life t½ ([5]; RT, pH 7): 104 days
- final concentration Cf ([5]; RT, pH 7, C0 590 ppm, tf 33 Days): 474 ppm
- half life t½ ([5]; RT, pH 9): 106 days
- final concentration Cf ([5]; RT, pH 9, C0 589 ppm, tf 33 Days): 475 ppm
- half life t½ ([5]; RT, pH 12): 2 days
- final concentration Cf ([5]; RT, pH 12, C0 423 ppm, tf 1 Days): 280 ppm
- half-life ([5]; aqueous solution, acidic and basic conditions at room temperature, read-out: half lives): 2 to 100 days
SMILES: CNC(=O)N(C)Cl [DMCU, N-chloro-N,N′-dimethylurea]
- log10 reduction of viable cfu/mL (LR) (Pseudomonas aeruginosa [4]; 0.3 mg/L): 0.45 log10
- log10 reduction of viable cfu/mL (LR) (Pseudomonas aeruginosa [4]; 0.9 mg/L): 1.49 log10
- log10 reduction of viable cfu/mL (LR) (Pseudomonas aeruginosa [4]; 1.5 mg/L): 3.99 log10

- Free Cl ([3]; Time = 0): 0 ppm
- Tot Cl ([3]; Time = 0, listed as MCU-1): 1620 ppm
- Tot Cl ([3]; Time = 0, listed as MCU-2): 1190 ppm
- Free Cl ([3]; Time = 30 min, listed as MCU-1): 10 ppm
- Tot Cl ([3]; Time = 30 min, listed as MCU-1): 1500 ppm
- Free Cl ([3]; Time = 30 min, listed as MCU-2): 20 ppm
- Tot Cl ([3]; Time = 30 min, listed as MCU-2): 1210 ppm
- Free Cl [3, 13]: 10 ppm
- Tot Cl [3, 13]: 1490 ppm
- Free Cl [3, 14]: 30 ppm
- Tot Cl [3, 14]: 1120 ppm
- Free Cl [3, 15]: 10 ppm
- Tot Cl [3, 15]: 1230 ppm
- Free Cl [3, 16]: 20 ppm
- Tot Cl [3, 16]: 1000 ppm
SMILES: NC(=O)NCl [MCU, N-chlorourea]
- log10 of viable cfu/mL (P. aeruginosa; 1.0 mg/l): 9.9 log10 cfu/mL
- log10 of viable cfu/mL (P. aeruginosa; 3.0 mg/l): 4.3 log10 cfu/mL
- log10 of viable cfu/mL (P. aeruginosa; 5.0 mg/l): 3.2 log10 cfu/mL
- log10 of viable cfu/mL (P. aeruginosa; 10.0 mg/l): 3.1 log10 cfu/mL
- log10 of viable cfu/mL remaining after exposure (Pseudomonas aeruginosa [2]; 5.0 mg/L as Cl2, 60 minutes): 4.0 log10 cfu/mL
- log10 of viable cfu/mL remaining after exposure (Pseudomonas aeruginosa [2]; 10.0 mg/L as Cl2, 60 minutes): 2.7 log10 cfu/mL
- log10 of viable cfu/mL remaining after exposure (Pseudomonas aeruginosa [2]; 15.0 mg/L as Cl2, 60 minutes): 2.3 log10 cfu/mL
- Stability by 13C NMR ([6]; acidic conditions (pH of 2.5), overnight): no indication by ^13C NMR of any decomposition
- Stability by 13C NMR ([6]; basic conditions, 12 hours): no peak in the ^13C NMR from chlorourea could be detected

SMILES: NCl [monochloramine]
- Stability: total chlorine remaining relative to initial ([1]; 0 hr): 100%
- Stability: total chlorine remaining relative to initial ([1]; 3 hrs): 24%
- Stability: total chlorine remaining relative to initial ([1]; 6 hrs): 6%
- Stability: total chlorine remaining relative to initial ([1]; 24 hrs): 2%
- Stability: total chlorine remaining relative to initial ([1]; 48 hrs): 1%
